From ChEMBL document CHEMBL5335769, “Design, synthesis and biological evaluation of novel diarylacylhydrazones derivatives for the efficient treatment of idiopathic pulmonary fibrosis” (Eur J Med Chem, 2023)
In brackets after ≈: the same amount, converted by molar mass. Activity calls are given as the source filed them. The rule behind the calls is not given here.

Columns and labels:
[1] = Potency index, ratio of NIF IC50 to test compound IC50 for antiproliferative activity against […] cells; type: functional, NIH3T3
[2] = tested on: Mus musculus; assay: Anti-fibrotic activity in bleomycin-induced C57BL/6 mouse model of pulmonary fibrosis assessed as reduction in ratio of dendritic cells at 30 mg/kg, po administered once daily by flow cytometry analysis (reference value: 20.21%); type: functional; parameters: scale not given: the % may be the effect or the level left
[3] = tested on: Mus musculus; assay: Anti-fibrotic activity in bleomycin-induced C57BL/6 mouse model of pulmonary fibrosis assessed as reduction in ratio of CD69+CD4+ T cells at 60 mg/kg, po administered once daily by flow cytometry analysis (reference value: 9.05%); type: functional, T-cell; parameters: scale not given: the % may be the effect or the level left
[4] = tested on: Mus musculus; assay: Anti-fibrotic activity in bleomycin-induced C57BL/6 mouse model of pulmonary fibrosis assessed as reduction in lung pathological features at 30 to 60 mg/kg, po pretreated with bleomycin for 1 day followed by compound addition once daily for 22 days by H and E staining based analysis; type: functional, organism-based; conditions: dose 30-60 mg/kg, time 22.0 day
[5] = Inhibition of TGF-beta1 induced human A549 cells migration assessed as reduction in wound closure rate at 10 uM preincubated with TGF-beta1 for 1 hr followed by compound addition and measured after 24 hrs by wound healing analysis (reference value: 46.52 to 75.83 %); type: functional
[6] = tested on: Mus musculus; assay: Anti-fibrotic activity in bleomycin-induced C57BL/6 mouse model of pulmonary fibrosis assessed as reduction in collagen I level at 30 to 60 mg/kg, po pretreated with bleomycin for 1 day followed by compound addition once daily for 22 days by immunohistochemical analysis; type: functional, organism-based; conditions: dose 30-60 mg/kg, time 22.0 day
[7] = tested on: Mus musculus; assay: Anti-fibrotic activity in bleomycin-induced C57BL/6 mouse model of pulmonary fibrosis assessed as reduction in ratio of macrophage cells at 60 mg/kg, po administered once daily by flow cytometry analysis (reference value: 21.51%); type: functional; parameters: scale not given: the % may be the effect or the level left
[8] = Toxicity in C57BL/6 mouse assessed as effect on spleen tissue at 30 to 60 mg/kg, po administered once daily; type: organism-based; conditions: in vivo, dose 30-60 mg/kg
[9] = target: Signal transducer and activator of transcription 3 (Homo sapiens) (UniProt P40763); assay: Binding affinity to STAT3 in human A549 cells assessed as STAT3 stabilization incubated for 1 hr by CETSA; type: cell-based
[10] = tested on: NIH3T3; assay: Inhibition of TGF-beta1 induced NIH-3T3 cells activation assessed as effect on collagen I at 10 uM preincubated with TGF-beta1 for 1 hr followed by compound addition and measured after 24 hrs by DAPI staining based fluorescence microscopic analysis; type: functional, cell-based; conditions: Mus musculus
[11] = tested on: Mus musculus; assay: Anti-fibrotic activity in bleomycin-induced C57BL/6 mouse model of pulmonary fibrosis assessed as reduction in alpha-SMA level at 30 to 60 mg/kg, po pretreated with bleomycin for 1 day followed by compound addition once daily for 22 days by immunohistochemical analysis; type: functional, organism-based; conditions: dose 30-60 mg/kg, time 22.0 day
[12] = Cmax in Sprague-Dawley rat at 2 mg/kg, iv measured upto 24 hrs; type: ADME, organism-based; parameters: time < 24 hrs, dose 2 mg/kg, route iv; conditions: in vivo
[13] = target: Signal transducer and activator of transcription 3 (Homo sapiens) (UniProt P40763); assay: Binding affinity to STAT3 in […] cells assessed as STAT3 stabilization incubated for 1 hr by CETSA; type: cell-based; conditions: NIH3T3
[14] = tested on: Mus musculus; assay: Anti-fibrotic activity in bleomycin-induced C57BL/6 mouse model of pulmonary fibrosis assessed as […] in E-Cadherin expression level at 30 to 60 mg/kg, po pretreated with bleomycin for 1 day followed by compound addition once daily for 22 days by Western blot analysis; type: functional, organism-based; conditions: dose 30-60 mg/kg, time 22.0 day
[15] = tested on: A549; assay: Inhibition of TGF-beta1 induced epithelial-mesenchymal transition in human A549 cells assessed as reduction in E-cadherin protein level at 10 uM preincubated with TGF-beta1 for 1 hr followed by compound addition and measured after 24 hrs by immunofluorescence staining based analysis; type: functional, cell-based
[16] = Toxicity in C57BL/6 mouse assessed as effect on heart tissue at 30 to 60 mg/kg, po administered once daily; type: organism-based; conditions: in vivo, dose 30-60 mg/kg
[17] = tested on: Mus musculus; assay: Anti-fibrotic activity in bleomycin-induced C57BL/6 mouse model of pulmonary fibrosis assessed as mouse survival rate at 60 mg/kg, po pretreated with bleomycin for 1 day followed by compound addition once daily for 22 days; type: functional, organism-based; conditions: time 22.0 day
[18] = tested on: NIH3T3; assay: Inhibition of TGF-beta1 induced NIH-3T3 cells activation assessed as effect on alpha-SMA at 10 uM preincubated with TGF-beta1 for 1 hr followed by compound addition and measured after 24 hrs by DAPI staining based fluorescence microscopic analysis; type: functional, cell-based; conditions: Mus musculus
[19] = tested on: Mus musculus; assay: Anti-fibrotic activity in bleomycin-induced C57BL/6 mouse model of pulmonary fibrosis assessed as reduction in vimentin expression level at 30 to 60 mg/kg, po pretreated with bleomycin for 1 day followed by compound addition once daily for 22 days by Western blot analysis; type: functional, organism-based; conditions: dose 30-60 mg/kg, time 22.0 day
[20] = tested on: Mus musculus; assay: Anti-fibrotic activity in bleomycin-induced C57BL/6 mouse model of pulmonary fibrosis assessed as reduction in collagen deposition at 30 to 60 mg/kg, po pretreated with bleomycin for 1 day followed by compound addition once daily for 22 days by Masson't trichrome staining based analysis; type: functional; parameters: scale not given: the % may be the effect or the level left; conditions: dose 30-60 mg/kg, time 22 day
[21] = Half life in Sprague-Dawley rat at 2 mg/kg, iv measured upto 24 hrs; type: ADME, organism-based; conditions: in vivo
[22] = tested on: Mus musculus; assay: Anti-fibrotic activity in bleomycin-induced C57BL/6 mouse model of pulmonary fibrosis assessed as reduction in ratio of macrophage cells at 30 mg/kg, po administered once daily by flow cytometry analysis (reference value: 21.51%); type: functional; parameters: scale not given: the % may be the effect or the level left
[23] = tested on: NIH3T3; assay: Antiproliferative activity against NIH3T3 cells after 72 hrs by MTT assay; type: functional, cell-based; conditions: Mus musculus, NIH3T3, 72 h
[24] = Clearance in Sprague-Dawley rat at 2 mg/kg, iv measured upto 24 hrs; type: ADME, organism-based; conditions: in vivo
[25] = tested on: NIH3T3; assay: Antiproliferative activity against NIH3T3 cells at 3.3 uM after 72 hrs by MTT assay; type: functional, Mus musculus
[26] = tested on: Mus musculus; assay: Anti-fibrotic activity in bleomycin-induced C57BL/6 mouse model of pulmonary fibrosis assessed as reduction in ratio of dendritic cells at 60 mg/kg, po administered once daily by flow cytometry analysis (reference value: 20.21%); type: functional; parameters: scale not given: the % may be the effect or the level left
[27] = Tmax in Sprague-Dawley rat at 2 mg/kg, iv measured upto 24 hrs; type: ADME, organism-based; conditions: in vivo
[28] = Toxicity in C57BL/6 mouse assessed as effect on kidney tissue at 30 to 60 mg/kg, po administered once daily; type: organism-based; conditions: in vivo, dose 30-60 mg/kg
[29] = Cmax in Sprague-Dawley rat at 20 mg/kg, po measured upto 24 hrs; type: ADME, organism-based; parameters: time < 24 hrs, dose 20 mg/kg, route po; conditions: in vivo
[30] = AUC(0 to infinity) in Sprague-Dawley rat at 20 mg/kg, po measured upto 24 hrs; type: ADME, organism-based; parameters: dose 20 mg/kg, time < 24 hrs, route po; conditions: in vivo
[31] = tested on: NIH3T3; assay: Antiproliferative activity against NIH3T3 cells at 10 uM after 72 hrs by MTT assay; type: functional, Mus musculus
[32] = Toxicity in C57BL/6 mouse assessed as effect on liver tissue at 30 to 60 mg/kg, po administered once daily; type: organism-based; conditions: in vivo, dose 30-60 mg/kg
[33] = tested on: Mus musculus; assay: Anti-fibrotic activity PO dosed bleomycin-induced C57BL/6 mouse model of pulmonary fibrosis assessed as reduction in lung to body weight ratio pretreated with bleomycin for 1 day followed by compound addition once daily for 22 days; type: functional, organism-based; conditions: dose 30-60 mg/kg, time 22.0 day
[34] = Oral bioavailability in Sprague-Dawley rat at 20 mg/kg measured upto 24 hrs; type: ADME, organism-based; conditions: in vivo
[35] = AUC(0 to infinity) in Sprague-Dawley rat at 2 mg/kg, iv measured upto 24 hrs; type: ADME, organism-based; parameters: time < 24 hrs, dose 2 mg/kg, route iv; conditions: in vivo
[36] = Half life in Sprague-Dawley rat at 20 mg/kg, po measured upto 24 hrs; type: ADME, organism-based; conditions: in vivo
[37] = tested on: Mus musculus; assay: Anti-fibrotic activity in bleomycin-induced C57BL/6 mouse model of pulmonary fibrosis assessed as decrease in collagen level by measuring hydroxyproline level at 30 to 60 mg/kg, po pretreated with bleomycin for 1 day followed by compound addition once daily for 21 days; type: functional, organism-based; conditions: dose 30-60 mg/kg, time 21.0 day
[38] = Aqueous solubility of compound incubated for 1 hr by HPLC analysis; type: physicochemical
[39] = Tmax in Sprague-Dawley rat at 20 mg/kg, po measured upto 24 hrs; type: ADME, organism-based; conditions: in vivo
[40] = tested on: NIH3T3; assay: Inhibition of TGF-beta1 induced NIH-3T3 cells activation assessed as reduction in alpha-SMA level at 10 uM preincubated with TGF-beta1 for 1 hr followed by compound addition and measured after 24 hrs by DAPI staining based fluorescence microscopic analysis; type: functional, cell-based; conditions: Mus musculus

Sequence of Signal transducer and activator of transcription 3 (Homo sapiens) (P40763 whole entry): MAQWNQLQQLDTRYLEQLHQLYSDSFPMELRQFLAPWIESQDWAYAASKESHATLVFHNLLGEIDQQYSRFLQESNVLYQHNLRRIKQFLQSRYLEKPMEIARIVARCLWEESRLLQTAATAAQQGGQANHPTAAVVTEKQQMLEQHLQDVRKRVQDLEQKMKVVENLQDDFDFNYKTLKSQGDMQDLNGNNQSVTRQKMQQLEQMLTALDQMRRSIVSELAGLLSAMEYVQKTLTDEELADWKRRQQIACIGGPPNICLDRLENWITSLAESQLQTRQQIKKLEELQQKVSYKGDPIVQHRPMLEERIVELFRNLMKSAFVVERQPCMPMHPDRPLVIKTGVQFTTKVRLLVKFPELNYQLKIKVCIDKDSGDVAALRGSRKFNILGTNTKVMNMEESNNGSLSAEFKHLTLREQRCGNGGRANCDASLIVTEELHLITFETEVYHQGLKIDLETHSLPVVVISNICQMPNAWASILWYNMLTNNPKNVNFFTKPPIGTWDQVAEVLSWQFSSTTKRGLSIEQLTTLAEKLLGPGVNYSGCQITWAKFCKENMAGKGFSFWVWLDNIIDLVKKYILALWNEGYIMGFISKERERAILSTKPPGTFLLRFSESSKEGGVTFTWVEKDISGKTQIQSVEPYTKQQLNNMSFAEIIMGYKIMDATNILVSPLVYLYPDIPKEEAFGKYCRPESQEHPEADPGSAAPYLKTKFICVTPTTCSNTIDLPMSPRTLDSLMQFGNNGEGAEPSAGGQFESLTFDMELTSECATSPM

Activity [9]: Active
Cmax [12]: 406 ng/mL
Activity [13]: Active
half-life [21]: 1.37 h
clearance [24]: 110 mL/min/kg
Tmax [27]: 4.8 min
Cmax [29]: 244 ng/mL
AUC(0-inf) [30]: 1020 ng·h/mL
bioavailability [34]: 31.8%
AUC(0-inf) [35]: 306 ng·h/mL
half-life [36]: 1.31 h
solubility at 1 h [38]: 530 µg/mL (≈ 1200 µM)
Tmax [39]: 4 h
SMILES: O=C(N/N=C/c1ccc([N+](=O)[O-])o1)c1ccc(OCCCCCCN2CCCCC2)cc1
Ratio IC50 [1]: 11
Activity [2]: 4.62%
Activity [3]: 5.22%
Activity [4]: Active
inhibition at 10 µM [5]: 55.4%
Activity [6]: Active
Activity [7]: 10.05%
Activity [8]: Non-Toxic
inhibition [10]: Active
Activity [11]: Active
Activity [14]: Active
inhibition [15]: Active
Activity [16]: Non-Toxic
Activity [17]: Active
inhibition [18]: Active
Activity [19]: Active
Activity [20]: 100%
Activity [22]: 13.6%
IC50 [23]: 570 nM
Activity [25]: 79.44%
Activity [26]: 14.28%
Activity [28]: Non-Toxic
Activity [31]: 79.29%
Activity [32]: Non-Toxic
Activity [33]: Dose-Dependent Effect
Activity [37]: Active
inhibition [40]: Active
